Publication PMC8821502, “Engineering a feedback inhibition-insensitive plant dihydrodipicolinate synthase to increase lysine content in Camelina sativa seeds” (Transgenic Research, 2021)

What was measured:
Test in all cases: o-aminobenzaldehyde colorimetric DHDPS assay, […] nm
Type in all cases: biochemical
[1] = target: T1, CsDHDPS B6 (wt CsDHDPS) (Camelina sativa, UniProt A0ABM0Z9P4); settings: 2 mM L-ASA, 35 mM pyruvate, pH 8, 37 °C; E. coli extract
T1 construct: gene LOC104788368; ORF (365 aa, includes predicted 38-aa chloroplast transit peptide) in pUC18 in-frame with LacZ start codon; E. coli cell extract, not purified; modelled as tetramer

[2] = target: T2, CgDHDPS (Corynebacterium glutamicum, UniProt P19808); settings: 2 mM L-ASA, 35 mM pyruvate, pH 8, 37 °C; E. coli extract
T2 construct: gene dapA; ORF (301 aa) in pUC18; E. coli cell extract, not purified
T2 sequence (P19808 1-301): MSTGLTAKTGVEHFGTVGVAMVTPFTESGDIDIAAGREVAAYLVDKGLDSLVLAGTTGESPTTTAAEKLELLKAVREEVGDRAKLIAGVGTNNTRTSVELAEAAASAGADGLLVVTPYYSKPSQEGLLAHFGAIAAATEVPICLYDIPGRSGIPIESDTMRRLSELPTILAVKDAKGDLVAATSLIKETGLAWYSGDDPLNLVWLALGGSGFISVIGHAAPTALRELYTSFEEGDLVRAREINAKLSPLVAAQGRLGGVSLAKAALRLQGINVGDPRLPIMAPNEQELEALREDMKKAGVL

[3] = target: T1, CsDHDPS B6 (wt CsDHDPS); settings: read-out: % activity remaining at 25 μM lysine

T1 sequence (A0ABM0Z9P4 entry or part of it): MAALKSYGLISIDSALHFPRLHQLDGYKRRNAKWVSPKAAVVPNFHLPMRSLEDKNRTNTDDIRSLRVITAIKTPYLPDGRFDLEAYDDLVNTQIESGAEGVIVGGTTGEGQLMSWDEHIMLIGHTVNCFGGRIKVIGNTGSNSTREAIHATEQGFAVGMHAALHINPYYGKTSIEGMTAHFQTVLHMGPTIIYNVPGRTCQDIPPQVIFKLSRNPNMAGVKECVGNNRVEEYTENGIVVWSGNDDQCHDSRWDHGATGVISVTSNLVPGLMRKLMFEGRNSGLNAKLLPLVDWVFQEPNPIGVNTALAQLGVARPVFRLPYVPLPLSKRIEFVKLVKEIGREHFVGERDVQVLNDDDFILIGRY

Q: With N[C@@H](CC=O)C(=O)O [L-aspartic-β-semi-aldehyde] as the compound, how does the “o-aminobenzaldehyde colorimetric DHDPS assay, 520 nm” value [1] read?
A: using L-aspartic-β-semi-aldehyde (L-ASA) as the substrate

Q: And the “o-aminobenzaldehyde colorimetric DHDPS assay, 520 nm” value [2]?
A: using L-aspartic-β-semi-aldehyde (L-ASA) as the substrate

Q: For NCCCC[C@H](N)C(=O)O [lysine], which remaining activity at 25 µM [3] is on record?
A: 20%
